Legend:
[1] = test system: BMSC (primary human bone marrow mesenchymal stromal cells); assay: absolute EC50 for viability; higher = less sensitive
[2] = test system: BMSC (primary human bone marrow mesenchymal stromal cells); assay: drug sensitivity score (DSS); higher = more sensitive

SMILES | absolute EC50 for viability [1] [µM] | drug sensitivity score [2]
CCNC(=O)CCC/C=C\C[C@@H]1[C@@H](/C=C/[C@@H](O)CCc2ccccc2)[C@H](O)C[C@@H]1O [Bimatoprost] | > 5.5 | -0.9
O=C(c1ccc(C(=O)N2CCC(N3CCCC3)CC2)c(Nc2ccccc2)c1)N1CCC(N2CCCC2)CC1 [UNC1215] | > 10 | 0
Nc1cccc2c1C(=O)N(C1CCC(=O)NC1=O)C2=O (stereo not given) [Pomalidomide] | > 10 | 0
CN(CC(=O)N(Cc1ccc(C2CCCCC2)cc1)c1ccc(C(=O)O)cc1)S(=O)(=O)c1c(F)c(F)c(F)c(F)c1F [SH-4-54] | > 25 | 4
CC(C)C[C@@H](C(=O)N[C@H](C(=O)OC1CCCC1)c1ccccc1)[C@H](O)C(=O)NO [Tosedostat] | > 10 | 0
Cc1ccc(NC(=O)c2ccc(CN3CCN(C)CC3)cc2)cc1Nc1nccc(-c2cccnc2)n1 [Imatinib] | > 10 | 5.8
Cn1c(Nc2ccc(C(F)(F)F)cc2)nc2cc(Oc3ccnc(-c4ncc(C(F)(F)F)[nH]4)c3)ccc21 [RAF-265] | > 1 | 2.5
Cc1cccc(CC(=O)N2CCc3c2ccc(-c2cn(C)c4ncnc(N)c24)c3F)n1 | > 2.5 | 0
CC[C@H](CC#N)OC(=O)N[C@@H](C)c1cccc(NC(=O)Nc2ccc(-c3cnco3)c(OC)c2)c1 [AVN944] | > 10 | 3.9
Cc1ccc(-c2cc(C(F)(F)F)nn2-c2ccc(S(N)(=O)=O)cc2)cc1 [Celecoxib] | > 10 | 0
Cc1ccc(NC(=O)c2ccc(CN3CC[C@H](N(C)C)C3)c(C(F)(F)F)c2)cc1Nc1nccc(-c2cncnc2)n1 [Bafetinib] | > 1 | 1.9
COc1cc(C)[nH]c(=O)c1CNC(=O)c1c(C)n([C@H](C)C2CCOCC2)c2ccccc12 [CPI-360] | > 10 | 0
Cc1cc2c(C(=O)NC[C@H](C)c3ccccc3)c(O)c(O)cc2c(O)c1-c1c(C)cc2c(C(=O)NC[C@H](C)c3ccccc3)c(O)c(O)cc2c1O [Sabutoclax] | 7.71 | 5.6
C=CCn1c(=O)c2cnc(Nc3ccc(N4CCN(C)CC4)cc3)nc2n1-c1cccc(C(C)(C)O)n1 [AZD1775] | > 10 | 4.8
CN(C)CC#Cc1ccc(OCCCc2sc(N3CCc4cccc(C(=O)Nc5nc6ccccc6s5)c4C3)nc2C(=O)O)c(F)c1 | > 10 | 0
CC(C)[C@H](C(=O)Nc1ccc(C(=O)NO)cc1)c1ccccc1 [AR-42] | 1.94 | 7.5
COc1cc2/c(=N/c3ccc(Br)cc3F)nc[nH]c2cc1OCC1CCN(C)CC1 [Vandetanib] | > 1 | 2.5
COc1ccc(-c2ccc3ncc4c(c3c2)n(-c2ccc(N3CCNCC3)c(C(F)(F)F)c2)c(=O)n4C)cn1 [NVP-BGT226] | 0.0263 | 17.5
Nc1ccccc1NC(=O)c1ccc(CNc2nccc(-c3cccnc3)n2)cc1 [Mocetinostat] | > 10 | 4.7
CC1(C)C(C(=O)Nc2ccc(S(=O)(=O)c3ccc(NC(=O)C4C(C)(C)C4(C)C)cc3)cc2)C1(C)C [BRD7116] | > 10 | 0
CN(C)C(=N)NC(=N)N [Metformin] | > 100 | 0
Cc1cc(OCc2nnc(SC3CCCC3)n2-c2cccnc2)ccc1-c1ccc(S(C)(=O)=O)cc1 [NMS-873] | 5.4 | 4.1
COc1cc(OC)cc(N(CCNC(C)C)c2ccc3ncc(-c4cnn(C)c4)nc3c2)c1 [Erdafitinib] | > 1 | 2.2
CO[C@H]1CC[C@H](N2C(=O)CNc3ncc(-c4ccc(C(C)(C)O)nc4)nc32)CC1 [CC-223] | 6.04 | 4.4
CC1(C)CC[C@]2(NC(=O)C(C)(F)F)CC[C@]3(C)[C@H](C(=O)C=C4[C@@]5(C)C=C(C#N)C(=O)C(C)(C)[C@@H]5CC[C@]43C)[C@@H]2C1 [Omaveloxolone] | 3.77 | 4.7
CCOc1ccn(-c2ccc(F)cc2)c(=O)c1C(=O)Nc1ccc(Oc2ccnc(N)c2Cl)c(F)c1 | > 2.5 | 0
CN(C)C(=O)c1cc2cnc(Nc3ccc(N4CCNCC4)cn3)nc2n1C1CCCC1 [Ribociclib] | > 10 | 2.2
O=C(CCNC(=O)c1ccc(OC(F)(F)F)cc1)N[C@@H]1CCCc2ccccc21 [ML390] | > 50 | 0.3

SMILES | absolute EC50 for viability [1] [µM] | drug sensitivity score [2]
Cc1cccc(-c2[nH]c(CNc3ccccc3F)nc2-c2ccc3ncnn3c2)n1 [TEW-7197] | > 2.5 | 2.1
CN(C(=O)c1ccc(F)cc1C(F)(F)F)C1CCN(c2nnc(-c3ccnn3C)c3ccccc23)CC1 [Taladegib] | > 10 | 0
C[C@]12CC[C@@H]3c4ccc(O)cc4C[C@@H](CCCCCCCCC[S+]([O-])CCCC(F)(F)C(F)(F)F)[C@H]3[C@@H]1CC[C@@H]2O (stereo not given in full) [Fulvestrant] | > 1 | 0
COc1cc(Nc2ncc3c(n2)-c2ccc(Cl)cc2C(c2c(F)cccc2OC)=NC3)ccc1C(=O)O [Alisertib] | > 10 | 0
C[C@H]1O[C@@H](O[C@H]2[C@@H](O)C[C@H](O[C@H]3[C@@H](O)C[C@H](O[C@H]4CC[C@@]5(C)[C@H](CC[C@@H]6[C@@H]5C[C@@H](O)[C@]5(C)[C@@H](C7=CC(=O)OC7)CC[C@]65O)C4)O[C@@H]3C)O[C@@H]2C)C[C@H](O)[C@@H]1O [Digoxin] | 0.0529 | 13.7
COc1ccc(S(=O)(=O)Nc2cccnc2Nc2ccc(O)cc2)cc1 [ABT-751] | > 10 | 5.5
CN1CCN(c2ccc(C(=O)Nc3n[nH]c4ccc(Cc5cc(F)cc(F)c5)cc34)c(NC3CCOCC3)c2)CC1 [Entrectinib] | > 1 | 0.8
CN1CCN(C(=O)c2ccc3cc(CCNc4ncnc5ccc(C#N)cc45)ccc3c2)CC1 [Senexin B] | > 1 | 0.3
COc1cc(C)c(/C=C/C(C)=C/C=C/C(C)=C/C(=O)O)c(C)c1C [Acitretin] | > 10 | 0
Cc1c(-c2ccc(N3CCc4cccc(C(=O)Nc5nc6ccccc6s5)c4C3)nc2C(=O)O)cnn1CC12CC3CC(CC(C3)C1)C2 | > 1 | 0
COc1cc2c(cc1OCCCN1CCCC1)N=C(N)C21CCC1 [A-366] | > 25 | 2.8
CCS(=O)(=O)c1cccc(-c2cc(C(=O)NC3CCN(C)CC3)c(C)c3[nH]c4ncc(C)cc4c23)c1 [TAK-901] | 0.265 | 5.9
Cc1c2oc3c(C)ccc(C(=O)N[C@@H]4C(=O)N[C@H](C(C)C)C(=O)N5CCC[C@H]5C(=O)N(C)CC(=O)N(C)[C@@H](C(C)C)C(=O)O[C@@H]4C)c3nc-2c(C(=O)N[C@@H]2C(=O)N[C@H](C(C)C)C(=O)N3CCC[C@H]3C(=O)N(C)CC(=O)N(C)[C@@H](C(C)C)C(=O)O[C@@H]2C)c(N)c1=O [Dactinomycin] | 0.0507 | 19
CCCS(=O)(=O)Nc1ccc(F)c(C(=O)c2c[nH]c3ncc(-c4ccc(Cl)cc4)cc23)c1F [Vemurafenib] | > 10 | 0
O=c1[nH]cc(F)c(=O)[nH]1 [Fluorouracil] | > 10 | 0.9
NS(=O)(=O)OC[C@@H]1C[C@@H](n2ccc3c(N[C@H]4CCc5ccccc54)ncnc32)C[C@@H]1O [Pevonedistat] | > 10 | 5.4
CC(=O)c1cnc2ccc(-c3cc(Cl)c(O)c(Cl)c3)nc2c1N[C@H]1CC[C@H](CN(C)C)CC1 [OTS167] | > 1 | 2.9
COc1cccc2c1c(O)c(C(=O)N(C)c1ccc(C(F)(F)F)cc1)c(=O)n2C [Tasquinimod] | > 10 | 0.8
CCN(CC)CCNC(=O)c1c(C)[nH]c(/C=C2\C(=O)Nc3ccc(-c4csc(-c5ccccc5)n4)cc32)c1C [Amcasertib] | 2.78 | 5.9
CN(C)c1cc2c(cc1Sc1nc3c(N)nccc3n1CCNCC(C)(C)C)OCO2 [CUDC-305] | 1.15 | 8.8
COCCOc1cnc2ccn([C@H](C)c3nnc4c(F)cc(-c5cnn(C)c5)cn34)c(=O)c2c1 [AMG-337] | 9.93 | 0
Cn1ncnc1[C@H]1c2n[nH]c(=O)c3cc(F)cc(c23)N[C@@H]1c1ccc(F)cc1 [Talazoparib] | > 1 | 1
O=C(O)c1ccc(O)c2ncccc12 [IOX-1] | > 100 | 0.6
CN(C)C1CCN(C(=O)c2ccc(NC(=O)Nc3ccc(-c4nc(N5CCOCC5)nc(N5CCOCC5)n4)cc3)cc2)CC1 [Gedatolisib] | 0.0437 | 14.3
CC(=O)OC[C@H]1O[C@@H]([S-])[C@H](OC(C)=O)[C@@H](OC(C)=O)[C@@H]1OC(C)=O.CCP(CC)CC.[Au+] [Auranofin] | 1.39 | 3.3
CC(=O)O[C@]1(C(C)=O)CC[C@H]2[C@@H]3C=C(C)C4=CC(=O)CC[C@]4(C)[C@H]3CC[C@@]21C [Megestrol acetate] | > 10 | 0
COc1cc([C@@H]2c3cc4c(cc3[C@@H](O[C@@H]3O[C@@H]5CO[C@@H](C)O[C@H]5[C@H](O)[C@H]3O)[C@H]3COC(=O)[C@H]23)OCO4)cc(OC)c1O [Etoposide] | > 10 | 0

Source: the supplement of paper PMC9103864
